Measured values taken from PMC4060151 (Chemistry & biology, 2014).

Key:
ClpC1 = settings: cited from earlier work
cell wall biosynthesis = settings: ref Iwatsuki et al., 2006; cited from earlier work
[1] = test system: stationary M. tuberculosis mc^26020; experiment: Time-dependent killing, stationary cells; format: cell-based; settings: 10 ×MIC; average of three biological replicates (Fig. 3B)

cyclomarin A
binding to ClpC1 (ClpC1): binds to ClpC1 | effect on proteolysis (ClpC1): proposed to cause excessive proteolysis

Lariatin A
mechanism of action (cell wall biosynthesis): inhibits cell wall biosynthesis

CO[C@H]1/C=C/O[C@@]2(C)Oc3c(C)c(O)c4c(O)c(c(/C=N/N5CCN(C)CC5)c(O)c4c3C2=O)NC(=O)/C(C)=C\C=C\[C@H](C)[C@H](O)[C@@H](C)[C@@H](O)[C@@H](C)[C@H](OC(C)=O)[C@@H]1C [rifampicin]
killing of stationary phase cells [1]: characteristic biphasic killing (Fig. 3B) and a significant number of persister cells survive exposure
